According to ChEMBL document CHEMBL1201862, “PubChem BioAssay data set” (2004):
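Compound exposure: 48 hours, 5 concentrations, 96-well plates. GI50 is the concentration that inhibits growth by half.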 The source made the active and inactive calls. Cut-off read from the data, not from the text of the source: active = GI50 up to about 1.1 µM and inactive = higher.

How the values were obtained:
Experiment in all cases: NCI-60 cell line screen, 48 h
CCRF-CEM = system: CCRF-CEM
HCT-15 = system: HCT-15
HL-60 = system: HL-60
HT-29 = system: HT-29
NCI-H226 = system: NCI-H226
NCI-H23 = system: NCI-H23
OVCAR-5 = system: OVCAR-5
SF-539 = system: SF-539
SK-MEL-28 = system: SK-MEL-28
SN12C = system: SN12C
SR = system: SR
TK-10 = system: TK-10
UO-31 = system: UO-31
OVCAR-4 = system: OVCAR-4

| SMILES | GI50 (CCRF-CEM) | GI50 (HCT-15) [µM] | GI50 (HL-60) | GI50 (HT-29) | GI50 (NCI-H226) | GI50 (NCI-H23) | GI50 (OVCAR-5) | GI50 (SF-539) | GI50 (SK-MEL-28) | GI50 (SN12C) | GI50 (SR) | GI50 (TK-10) | GI50 (UO-31) | GI50 (OVCAR-4) |
| --- | --- | --- | --- | --- | --- | --- | --- | --- | --- | --- | --- | --- | --- | --- |
| Cc1ccc(/N=C/c2ccc3c(c2)OCO3)cc1C | > 100 µM (inactive) | > 100 | > 100 µM (inactive) | > 100 µM (inactive) | > 100 µM (inactive) | > 100 µM (inactive) | > 100 µM (inactive) | > 100 µM (inactive) | > 100 µM (inactive) | > 100 µM (inactive) | > 100 µM (inactive) | > 100 µM (inactive) | > 100 µM (inactive) | – |
| CCOc1ccc(/C=N\N2C(=O)c3ccccc3C2=O)cc1 | > 100 µM (inactive) | > 100 | > 100 µM (inactive) | > 100 µM (inactive) | > 100 µM (inactive) | > 100 µM (inactive) | > 100 µM (inactive) | > 100 µM (inactive) | > 100 µM (inactive) | > 100 µM (inactive) | > 100 µM (inactive) | > 100 µM (inactive) | > 100 µM (inactive) | > 100 µM (inactive) |
| O=C(O)CC1CC=C[C@H]2c3cc4c(cc3C(=O)NC12)OCO4 (stereo not given in full) | > 75 µM (inactive) | > 75 | > 75 µM (inactive) | – | 44.7 µM (inactive) | > 75 µM (inactive) | – | > 75 µM (inactive) | > 75 µM (inactive) | > 75 µM (inactive) | > 75 µM (inactive) | > 75 µM (inactive) | > 75 µM (inactive) | – |
| Cc1cc(NS(=O)(=O)c2ccc(NC(=O)c3cccc4c(=O)c5ccccc5[nH]c34)cc2)no1 | 32.6 µM (inactive) | 66.7 | 30.9 µM (inactive) | 43.1 µM (inactive) | 41.9 µM (inactive) | 60.7 µM (inactive) | 94.6 µM (inactive) | 28.9 µM (inactive) | 41.2 µM (inactive) | 44.1 µM (inactive) | 28.2 µM (inactive) | 40.2 µM (inactive) | 15.7 µM (inactive) | 51.6 µM (inactive) |
| O/N=C/c1ccc(O)c(O)c1 | 7.38 µM (inactive) | 44.1 | 12.8 µM (inactive) | > 100 µM (inactive) | > 100 µM (inactive) | > 100 µM (inactive) | > 100 µM (inactive) | > 100 µM (inactive) | > 100 µM (inactive) | > 100 µM (inactive) | 37.2 µM (inactive) | > 100 µM (inactive) | 54 µM (inactive) | 77.3 µM (inactive) |
| O=C1NN=CN2C(=O)CCC12 (stereo not given) | > 100 µM (inactive) | > 100 | > 100 µM (inactive) | – | – | > 100 µM (inactive) | – | > 100 µM (inactive) | > 100 µM (inactive) | > 100 µM (inactive) | > 100 µM (inactive) | > 100 µM (inactive) | > 100 µM (inactive) | > 100 µM (inactive) |
| CCOC(=O)c1sc2c(C(=O)OCC)n3ccccc3c2c1N | > 100 µM (inactive) | > 100 | > 100 µM (inactive) | > 100 µM (inactive) | > 10 µM (inactive) | 43.6 µM (inactive) | > 100 µM (inactive) | 64.1 µM (inactive) | > 100 µM (inactive) | 96.8 µM (inactive) | – | 52.7 µM (inactive) | 26.1 µM (inactive) | > 100 µM (inactive) |
| CCCN(CCC)C(=O)c1nc(N)nc(-c2ccc(OC)cc2)c1-c1ccc(OC)cc1 | > 100 µM (inactive) | > 100 | 73.8 µM (inactive) | > 100 µM (inactive) | > 100 µM (inactive) | > 100 µM (inactive) | > 100 µM (inactive) | > 100 µM (inactive) | > 100 µM (inactive) | > 100 µM (inactive) | – | > 100 µM (inactive) | > 100 µM (inactive) | 47.9 µM (inactive) |
| CC(=O)Nc1ccc(S(=O)(=O)N/N=C/c2cc(I)cc([N+](=O)[O-])c2O)cc1 | 35.6 µM (inactive) | 75.5 | 31.5 µM (inactive) | > 100 µM (inactive) | 62.4 µM (inactive) | 29.5 µM (inactive) | > 100 µM (inactive) | – | 25.2 µM (inactive) | 64.3 µM (inactive) | – | > 100 µM (inactive) | 33.3 µM (inactive) | 30.3 µM (inactive) |
| O=c1oc2c3ccc4ccccc4c3n(Cc3nc4ccccc4[nH]3)c2c2ccccc12 | 1.07 µM (active) | 1.37 | 3.7 µM (inactive) | 4.48 µM (inactive) | 7.03 µM (inactive) | 4.95 µM (inactive) | > 36.2 µM (inactive) | 3.54 µM (inactive) | > 26.7 µM (inactive) | 3.72 µM (inactive) | 0.791 µM (active) | > 100 µM (inactive) | 1.95 µM (inactive) | 24.9 µM (inactive) |
| COc1cc(O)c(C(=O)/C=C/c2ccc(OC)c(OCc3ccccc3)c2)c(OC)c1 | 3.92 µM (inactive) | 10.3 | 8.67 µM (inactive) | > 100 µM (inactive) | > 100 µM (inactive) | 6.52 µM (inactive) | > 100 µM (inactive) | > 100 µM (inactive) | – | > 100 µM (inactive) | 4.08 µM (inactive) | > 100 µM (inactive) | > 100 µM (inactive) | > 100 µM (inactive) |
| CCCCN/C(=N/C#N)NCc1ccccc1 | > 100 µM (inactive) | > 100 | > 100 µM (inactive) | > 100 µM (inactive) | > 100 µM (inactive) | > 100 µM (inactive) | > 100 µM (inactive) | > 100 µM (inactive) | > 100 µM (inactive) | > 100 µM (inactive) | > 100 µM (inactive) | > 100 µM (inactive) | > 100 µM (inactive) | > 100 µM (inactive) |
| O=c1cc(-c2ccc(O)cc2)oc2cc(O)cc(O)c12 [APIGENIN] | 20.4 µM (inactive) | 28.1 | 29.7 µM (inactive) | – | 24.7 µM (inactive) | 17.8 µM (inactive) | 30.5 µM (inactive) | > 10 µM (inactive) | 20.3 µM (inactive) | 30.4 µM (inactive) | 33.6 µM (inactive) | 41.2 µM (inactive) | 23.9 µM (inactive) | 32.2 µM (inactive) |
| CN(C)CC/C(=N\Nc1c(Cl)cccc1Cl)c1ccccc1 | 28.2 µM (inactive) | 17.7 | 16.3 µM (inactive) | 15.8 µM (inactive) | – | 15.6 µM (inactive) | 19.2 µM (inactive) | 16.9 µM (inactive) | 19.2 µM (inactive) | 28.7 µM (inactive) | 21.5 µM (inactive) | 16.8 µM (inactive) | 7.08 µM (inactive) | 20.3 µM (inactive) |
| CC(=O)OCCc1cccnc1/C=N/O | > 100 µM (inactive) | > 100 | > 100 µM (inactive) | > 100 µM (inactive) | 77.6 µM (inactive) | > 100 µM (inactive) | > 100 µM (inactive) | > 100 µM (inactive) | > 100 µM (inactive) | > 100 µM (inactive) | > 100 µM (inactive) | > 100 µM (inactive) | > 100 µM (inactive) | > 100 µM (inactive) |
| CS(=O)(=O)OCCN1CCN(C(=O)c2cccc3c(Nc4ccc(S(N)(=O)=O)cc4)c4ccccc4nc23)CC1 | > 44.1 µM (inactive) | > 42.9 | > 63.1 µM (inactive) | > 100 µM (inactive) | > 100 µM (inactive) | > 100 µM (inactive) | > 100 µM (inactive) | > 100 µM (inactive) | > 100 µM (inactive) | > 100 µM (inactive) | > 100 µM (inactive) | > 100 µM (inactive) | > 100 µM (inactive) | > 100 µM (inactive) |
| Cc1cc(N(CCC#N)CCC#N)ccc1/N=N/c1ccc(C(=O)O)cc1 | – | > 100 | – | > 100 µM (inactive) | > 100 µM (inactive) | > 100 µM (inactive) | > 100 µM (inactive) | > 100 µM (inactive) | > 100 µM (inactive) | > 100 µM (inactive) | – | > 100 µM (inactive) | 77.6 µM (inactive) | > 100 µM (inactive) |
| COc1cc(-c2cc(-c3cc([N+](=O)[O-])c(/C=N/NC(=O)c4ccncc4)o3)ccc2OC)ccc1C | > 10 µM (inactive) | – | > 10 µM (inactive) | > 100 µM (inactive) | > 100 µM (inactive) | > 100 µM (inactive) | > 100 µM (inactive) | > 100 µM (inactive) | > 100 µM (inactive) | > 100 µM (inactive) | – | > 100 µM (inactive) | – | > 100 µM (inactive) |
| N#CC1C(=O)NC(=O)C1=O (stereo not given) | – | > 100 | – | > 100 µM (inactive) | > 100 µM (inactive) | > 100 µM (inactive) | > 100 µM (inactive) | > 100 µM (inactive) | > 100 µM (inactive) | > 100 µM (inactive) | – | > 100 µM (inactive) | > 100 µM (inactive) | > 100 µM (inactive) |
| CC12CC(=O)OC(Cc3ccccc31)O2 (stereo not given) | > 100 µM (inactive) | – | > 100 µM (inactive) | > 100 µM (inactive) | > 100 µM (inactive) | > 100 µM (inactive) | – | > 100 µM (inactive) | > 100 µM (inactive) | > 100 µM (inactive) | > 100 µM (inactive) | > 100 µM (inactive) | > 100 µM (inactive) | – |
| COC(=O)[C@@]12OC[C@]34C([C@@H](O)C1O)[C@@]1(C)CC(=O)C(O)=C(C)C1C[C@H]3OC(=O)[C@H](OC(=O)CC(C)C(F)(F)F)[C@H]42 (stereo not given in full) | 0.012 µM (active) | 0.166 | 0.00375 µM (active) | 0.0133 µM (active) | 0.0108 µM (active) | 0.0126 µM (active) | 0.146 µM (active) | 0.0105 µM (active) | 0.0121 µM (active) | 0.145 µM (active) | 0.00429 µM (active) | 0.0662 µM (active) | 0.149 µM (active) | 0.0676 µM (active) |
| CCOC(=O)C(=O)Nc1nc2c(s1)C(=O)c1ccccc1C2=O | 5.05 µM (inactive) | 15.6 | – | 14.4 µM (inactive) | 18.2 µM (inactive) | 13.5 µM (inactive) | 27.7 µM (inactive) | 17.7 µM (inactive) | 14.3 µM (inactive) | 16.5 µM (inactive) | 3.43 µM (inactive) | – | 14.8 µM (inactive) | 17.1 µM (inactive) |
